# Assay results from patent US20220088016A1, “CANCER TREATMENT USING MULTI-TARGETED KINASE INHIBITOR IN COMBINATION OF PROTEIN KINASE BIOMARKERS” (ZHEJIANG CROWNMAB BIOTECH CO. LTD., priority 2019, published 2022).
# What was measured:
# Test in all cases: Kinase profiling
# Format in all cases: binding
# Conditions in all cases: read-out: % Ctrl @ 1000 nM
# [1] = target: AAK1 (Homo sapiens, UniProt Q2M2I8)
# [2] = target: ABL1 (F317I)-nonphosphorylated (Homo sapiens, UniProt P00519, F317I)
# [3] = target: ACVR1B (Homo sapiens, UniProt P36896)
# [4] = target: ARK5 (Homo sapiens, UniProt O60285)
# [5] = target: BMPR1A (Homo sapiens, UniProt P36894)
# [6] = target: BMX (Homo sapiens, UniProt P51813)
# [7] = target: CAMK1B (Homo sapiens, UniProt Q6P2M8)
# [8] = target: CDK11 (Homo sapiens, UniProt Q9BWU1)
# [9] = target: DDR2 (Homo sapiens, UniProt Q16832)
# [10] = target: DMPK2 (Homo sapiens, UniProt Q6DT37)
# [11] = target: EGFR (S752-I759del) (Homo sapiens, UniProt P00533, DEL752-759)
# [12] = target: EGFR (T790M) (Homo sapiens, UniProt P00533, T790M)
# [13] = target: EPHA6 (Homo sapiens, UniProt Q9UF33)
# [14] = target: ERN1 (Homo sapiens, UniProt O75460)
# [15] = target: FER (Homo sapiens, UniProt P16591)
# FER, sequence (P16591 whole entry): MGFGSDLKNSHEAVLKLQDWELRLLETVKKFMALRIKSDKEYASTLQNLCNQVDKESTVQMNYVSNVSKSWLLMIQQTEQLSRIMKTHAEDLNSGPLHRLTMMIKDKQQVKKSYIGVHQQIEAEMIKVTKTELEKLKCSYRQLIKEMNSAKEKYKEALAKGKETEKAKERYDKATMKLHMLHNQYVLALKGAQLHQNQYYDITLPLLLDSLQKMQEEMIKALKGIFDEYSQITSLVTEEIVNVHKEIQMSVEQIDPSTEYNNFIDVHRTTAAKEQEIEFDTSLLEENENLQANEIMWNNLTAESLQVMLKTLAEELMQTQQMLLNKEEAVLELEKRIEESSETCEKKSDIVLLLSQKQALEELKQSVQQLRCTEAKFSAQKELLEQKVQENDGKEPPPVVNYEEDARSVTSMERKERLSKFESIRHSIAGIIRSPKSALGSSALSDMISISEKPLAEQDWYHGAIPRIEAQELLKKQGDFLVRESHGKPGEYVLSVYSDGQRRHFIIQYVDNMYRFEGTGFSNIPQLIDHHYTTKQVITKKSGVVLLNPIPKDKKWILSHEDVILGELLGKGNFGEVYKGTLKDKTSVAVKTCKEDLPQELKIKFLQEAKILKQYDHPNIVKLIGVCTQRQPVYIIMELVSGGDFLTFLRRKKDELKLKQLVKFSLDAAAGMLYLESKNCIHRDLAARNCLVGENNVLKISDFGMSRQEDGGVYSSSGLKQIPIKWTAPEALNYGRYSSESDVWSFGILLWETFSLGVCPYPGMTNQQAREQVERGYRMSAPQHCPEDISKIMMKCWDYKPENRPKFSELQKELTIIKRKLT
# [16] = target: FLT1 (Homo sapiens, UniProt P17948)
# FLT1, sequence (P17948 27-1338): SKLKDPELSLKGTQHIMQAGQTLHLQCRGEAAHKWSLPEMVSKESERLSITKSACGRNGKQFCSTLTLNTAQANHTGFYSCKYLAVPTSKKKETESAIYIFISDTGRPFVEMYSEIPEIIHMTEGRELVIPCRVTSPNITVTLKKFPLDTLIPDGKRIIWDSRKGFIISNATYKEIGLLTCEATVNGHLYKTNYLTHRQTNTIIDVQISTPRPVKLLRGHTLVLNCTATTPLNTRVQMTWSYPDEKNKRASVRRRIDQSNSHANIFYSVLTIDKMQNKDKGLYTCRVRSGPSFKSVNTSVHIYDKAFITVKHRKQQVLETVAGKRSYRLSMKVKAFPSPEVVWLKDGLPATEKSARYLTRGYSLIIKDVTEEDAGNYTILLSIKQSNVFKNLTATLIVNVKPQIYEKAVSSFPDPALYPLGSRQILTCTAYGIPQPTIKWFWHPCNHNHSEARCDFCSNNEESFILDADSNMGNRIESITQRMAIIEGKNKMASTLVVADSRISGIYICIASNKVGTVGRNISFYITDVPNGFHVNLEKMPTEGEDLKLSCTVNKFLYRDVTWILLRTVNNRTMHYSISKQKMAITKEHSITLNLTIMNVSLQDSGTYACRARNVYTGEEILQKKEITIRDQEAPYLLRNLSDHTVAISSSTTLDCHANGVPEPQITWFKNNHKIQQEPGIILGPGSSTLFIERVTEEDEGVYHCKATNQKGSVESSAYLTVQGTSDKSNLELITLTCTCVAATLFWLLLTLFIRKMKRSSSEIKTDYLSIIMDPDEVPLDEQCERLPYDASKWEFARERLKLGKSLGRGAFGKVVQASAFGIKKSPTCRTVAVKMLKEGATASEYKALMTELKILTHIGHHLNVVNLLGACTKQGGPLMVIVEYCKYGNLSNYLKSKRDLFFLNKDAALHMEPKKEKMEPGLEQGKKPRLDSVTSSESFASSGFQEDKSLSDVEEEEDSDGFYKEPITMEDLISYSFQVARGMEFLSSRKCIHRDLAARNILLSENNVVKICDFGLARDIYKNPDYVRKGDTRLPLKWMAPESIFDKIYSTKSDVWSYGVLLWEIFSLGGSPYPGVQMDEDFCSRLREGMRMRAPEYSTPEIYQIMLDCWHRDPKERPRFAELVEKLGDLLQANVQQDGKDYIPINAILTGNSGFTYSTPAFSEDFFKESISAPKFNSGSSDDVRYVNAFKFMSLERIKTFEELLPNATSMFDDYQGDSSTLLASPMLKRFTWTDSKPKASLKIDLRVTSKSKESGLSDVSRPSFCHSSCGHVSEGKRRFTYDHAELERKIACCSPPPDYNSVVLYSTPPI
# [17] = target: FLT3 (R834Q) (Homo sapiens, UniProt P36888, R834Q)
# [18] = target: HIPK1 (Homo sapiens, UniProt Q86Z02)
# [19] = target: HIPK2 (Homo sapiens, UniProt Q9H2X6)
# [20] = target: IGF1R (Homo sapiens, UniProt P08069)
# [21] = target: JAK2 (JH1domain-catalytic) (Homo sapiens, UniProt O60674)
# JAK2 (JH1domain-catalytic), sequence (O60674 849-1124 limits assumed): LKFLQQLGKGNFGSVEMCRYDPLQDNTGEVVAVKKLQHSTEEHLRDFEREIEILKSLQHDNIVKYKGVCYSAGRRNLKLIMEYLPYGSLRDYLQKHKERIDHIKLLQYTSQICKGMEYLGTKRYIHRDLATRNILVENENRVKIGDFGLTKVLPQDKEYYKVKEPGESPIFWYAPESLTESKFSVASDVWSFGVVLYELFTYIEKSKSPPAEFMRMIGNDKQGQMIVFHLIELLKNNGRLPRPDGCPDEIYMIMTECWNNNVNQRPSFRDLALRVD
# [22] = target: MAP4K3 (Homo sapiens, UniProt Q8IVH8)
# [23] = target: T1, MEK5 (Homo sapiens, UniProt Q13163)
# T1 construct: T7 phage fusion (stated for most kinases of the panel only); made in house; host or cells: T7 phage in E. coli (BL21-derived) or HEK-293 cells
# [24] = target: T2, MELK (Homo sapiens, UniProt Q14680)
# T2 construct: T7 phage fusion (stated for most kinases of the panel only); made in house; host or cells: T7 phage in E. coli (BL21-derived) or HEK-293 cells
# [25] = target: T3, NEK10 (Homo sapiens, UniProt Q6ZWH5)
# T3 construct: T7 phage fusion (said for most assays); made in house
# T3 sequence (Q6ZWH5 whole entry, the tested form may be a part): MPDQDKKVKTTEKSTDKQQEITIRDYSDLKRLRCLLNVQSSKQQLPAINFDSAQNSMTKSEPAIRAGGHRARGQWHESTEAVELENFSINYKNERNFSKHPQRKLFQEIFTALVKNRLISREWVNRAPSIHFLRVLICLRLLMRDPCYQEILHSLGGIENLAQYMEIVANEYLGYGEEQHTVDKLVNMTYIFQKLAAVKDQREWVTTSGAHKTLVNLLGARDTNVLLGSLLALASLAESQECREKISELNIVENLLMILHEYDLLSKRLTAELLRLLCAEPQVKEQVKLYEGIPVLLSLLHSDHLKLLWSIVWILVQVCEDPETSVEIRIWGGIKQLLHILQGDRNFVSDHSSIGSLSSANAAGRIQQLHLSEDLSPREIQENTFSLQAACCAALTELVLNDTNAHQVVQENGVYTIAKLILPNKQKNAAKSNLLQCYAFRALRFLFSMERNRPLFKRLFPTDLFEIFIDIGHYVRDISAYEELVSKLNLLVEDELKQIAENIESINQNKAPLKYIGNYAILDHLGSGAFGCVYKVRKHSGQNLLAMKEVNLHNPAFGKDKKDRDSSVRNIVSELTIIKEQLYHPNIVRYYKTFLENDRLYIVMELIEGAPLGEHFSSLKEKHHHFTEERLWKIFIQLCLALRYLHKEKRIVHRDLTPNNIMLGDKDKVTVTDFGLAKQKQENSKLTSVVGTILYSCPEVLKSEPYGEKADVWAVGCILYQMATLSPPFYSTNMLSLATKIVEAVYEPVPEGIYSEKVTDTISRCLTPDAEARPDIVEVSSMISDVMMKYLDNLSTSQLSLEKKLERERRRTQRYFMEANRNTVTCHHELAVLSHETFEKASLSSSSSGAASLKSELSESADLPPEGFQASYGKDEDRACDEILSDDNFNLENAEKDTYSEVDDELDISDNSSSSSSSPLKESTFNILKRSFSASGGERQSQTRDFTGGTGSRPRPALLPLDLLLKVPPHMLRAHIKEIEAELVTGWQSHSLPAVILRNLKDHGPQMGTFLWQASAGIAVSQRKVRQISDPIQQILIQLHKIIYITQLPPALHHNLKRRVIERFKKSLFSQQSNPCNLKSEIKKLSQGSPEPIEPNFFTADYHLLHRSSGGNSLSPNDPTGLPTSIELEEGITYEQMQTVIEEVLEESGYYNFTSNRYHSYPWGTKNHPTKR
# [26] = target: T4, NEK2 (Homo sapiens, UniProt P51955)
# T4 construct: T7 phage fusion (said for most assays); made in house
# [27] = target: PCTK2 (Homo sapiens, UniProt Q00537)
# [28] = target: ROCK1 (Homo sapiens, UniProt Q13464)
# [29] = target: SIK (Homo sapiens, UniProt P57059)
# [30] = target: SRMS (Homo sapiens, UniProt Q9H3Y6)
# SRMS, sequence (Q9H3Y6 whole entry): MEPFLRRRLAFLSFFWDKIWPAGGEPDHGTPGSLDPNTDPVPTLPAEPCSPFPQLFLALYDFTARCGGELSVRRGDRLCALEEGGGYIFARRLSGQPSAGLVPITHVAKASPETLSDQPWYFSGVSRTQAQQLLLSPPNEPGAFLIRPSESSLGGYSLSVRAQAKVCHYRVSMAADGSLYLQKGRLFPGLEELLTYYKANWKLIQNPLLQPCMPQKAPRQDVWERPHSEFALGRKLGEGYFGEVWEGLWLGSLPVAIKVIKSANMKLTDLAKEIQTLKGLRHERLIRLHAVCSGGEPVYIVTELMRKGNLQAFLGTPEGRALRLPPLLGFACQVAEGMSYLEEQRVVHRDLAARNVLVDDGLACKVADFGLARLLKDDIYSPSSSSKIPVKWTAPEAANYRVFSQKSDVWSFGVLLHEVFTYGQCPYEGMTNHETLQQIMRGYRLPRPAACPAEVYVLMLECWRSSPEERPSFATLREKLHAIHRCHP
# [31] = target: SRPK3 (Homo sapiens, UniProt Q9UPE1)
# [32] = target: STK16 (Homo sapiens, UniProt O75716)
# [33] = target: STK33 (Homo sapiens, UniProt Q9BYT3)
# [34] = target: TAK1 (Homo sapiens, UniProt O43318)
# TAK1, sequence (O43318 whole entry): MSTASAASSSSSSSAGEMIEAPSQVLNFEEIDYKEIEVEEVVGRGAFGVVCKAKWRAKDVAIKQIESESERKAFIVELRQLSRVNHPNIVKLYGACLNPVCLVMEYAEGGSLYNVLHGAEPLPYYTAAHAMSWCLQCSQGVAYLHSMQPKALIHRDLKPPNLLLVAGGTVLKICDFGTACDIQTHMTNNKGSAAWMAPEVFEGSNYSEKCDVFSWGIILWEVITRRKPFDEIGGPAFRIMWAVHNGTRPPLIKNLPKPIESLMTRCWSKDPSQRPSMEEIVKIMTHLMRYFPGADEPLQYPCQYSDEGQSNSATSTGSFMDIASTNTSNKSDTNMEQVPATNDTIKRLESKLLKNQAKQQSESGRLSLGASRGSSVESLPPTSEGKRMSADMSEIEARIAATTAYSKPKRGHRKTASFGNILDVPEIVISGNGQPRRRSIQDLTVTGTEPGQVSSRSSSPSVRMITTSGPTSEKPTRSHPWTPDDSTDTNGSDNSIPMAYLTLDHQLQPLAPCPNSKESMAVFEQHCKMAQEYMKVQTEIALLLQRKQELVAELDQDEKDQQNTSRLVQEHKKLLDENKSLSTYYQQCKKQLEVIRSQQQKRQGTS
# [35] = target: TESK1 (Homo sapiens, UniProt Q15569)
# [36] = target: TNK2 (Homo sapiens, UniProt Q07912)
# [37] = target: TRPM6 (Homo sapiens, UniProt Q9BX84)
# [38] = target: TTK (Homo sapiens, UniProt P33981)
# [39] = target: YANK1 (Homo sapiens, UniProt Q8WU08)
# YANK1, sequence (Q8WU08 whole entry): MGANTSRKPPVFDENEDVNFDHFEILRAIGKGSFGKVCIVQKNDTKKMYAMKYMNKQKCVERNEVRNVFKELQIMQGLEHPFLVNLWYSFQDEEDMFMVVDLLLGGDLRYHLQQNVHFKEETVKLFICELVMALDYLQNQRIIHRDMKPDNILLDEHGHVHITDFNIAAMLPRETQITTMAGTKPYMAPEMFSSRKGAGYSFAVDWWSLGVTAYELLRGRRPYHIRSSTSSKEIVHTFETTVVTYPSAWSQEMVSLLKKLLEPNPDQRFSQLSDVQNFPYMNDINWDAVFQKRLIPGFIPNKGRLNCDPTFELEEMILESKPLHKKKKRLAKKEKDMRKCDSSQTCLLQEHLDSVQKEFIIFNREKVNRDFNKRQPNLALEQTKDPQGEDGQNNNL
smiles,measurement,setting,value
Cc1cc(Oc2cc(NC(=O)C3CC3)ncn2)ccc1NC(=O)Nc1ccc(Cl)c(C(F)(F)F)c1 [CBT-102],remaining activity at 1 µM,[1],96%
same,remaining activity at 1 µM,[2],70%
same,remaining activity at 1 µM,[3],100%
same,remaining activity at 1 µM,[4],100%
same,remaining activity at 1 µM,[5],54%
same,remaining activity at 1 µM,[6],90%
same,remaining activity at 1 µM,[7],98%
same,remaining activity at 1 µM,[8],0%
same,remaining activity at 1 µM,[9],1.1%
same,remaining activity at 1 µM,[10],100%
same,remaining activity at 1 µM,[11],91%
same,remaining activity at 1 µM,[12],94%
same,remaining activity at 1 µM,[13],2.7%
same,remaining activity at 1 µM,[14],78%
same,remaining activity at 1 µM,[15],73%
same,remaining activity at 1 µM,[16],0.8%
same,remaining activity at 1 µM,[17],97%
same,remaining activity at 1 µM,[18],96%
same,remaining activity at 1 µM,[19],90%
same,remaining activity at 1 µM,[20],95%
same,remaining activity at 1 µM,[21],100%
same,remaining activity at 1 µM,[22],19%
same,remaining activity at 1 µM,[23],6.2%
same,remaining activity at 1 µM,[24],84%
same,remaining activity at 1 µM,[25],77%
same,remaining activity at 1 µM,[26],98%
same,remaining activity at 1 µM,[27],44%
same,remaining activity at 1 µM,[28],100%
same,remaining activity at 1 µM,[29],95%
same,remaining activity at 1 µM,[30],99%
same,remaining activity at 1 µM,[31],100%
same,remaining activity at 1 µM,[32],100%
same,remaining activity at 1 µM,[33],63%
same,remaining activity at 1 µM,[34],12%
same,remaining activity at 1 µM,[35],100%
same,remaining activity at 1 µM,[36],93%
same,remaining activity at 1 µM,[37],99%
same,remaining activity at 1 µM,[38],61%
same,remaining activity at 1 µM,[39],98%
